Assay results taken from PubChem BioAssay (NCI).
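Results reflect a 48-hour exposure of cells in 96-well plates to compound at five concentrations. At the GI50, growth is halved. TGI: total growth inhibition.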

Assays:
Assay in all cases: NCI tumour cell line growth inhibition, 48 h
A498 renal = test system: A498 renal
DU-145 prostate = test system: DU-145 prostate
HCC-2998 colon = test system: HCC-2998 colon
IGROV1 ovarian = test system: IGROV1 ovarian
M14 melanoma = test system: M14 melanoma
OVCAR-3 ovarian = test system: OVCAR-3 ovarian
OVCAR-5 ovarian = test system: OVCAR-5 ovarian
OVCAR-8 ovarian = test system: OVCAR-8 ovarian
PC-3 prostate = test system: PC-3 prostate
SF-295 CNS = test system: SF-295 CNS

SMILES | GI50 (A498 renal) | TGI (A498 renal) | GI50 (DU-145 prostate) | TGI (DU-145 prostate) | GI50 (HCC-2998 colon) | TGI (HCC-2998 colon) | GI50 (IGROV1 ovarian) | TGI (IGROV1 ovarian) | GI50 (M14 melanoma) | TGI (M14 melanoma) | GI50 (OVCAR-3 ovarian) | TGI (OVCAR-3 ovarian) | GI50 (OVCAR-5 ovarian) | TGI (OVCAR-5 ovarian) | GI50 (OVCAR-8 ovarian) | TGI (OVCAR-8 ovarian) | GI50 (PC-3 prostate) | TGI (PC-3 prostate) | GI50 (SF-295 CNS) | TGI (SF-295 CNS)
CNc1nc(NC2CCCC2)nc(Sc2ccc(OC)cc2)n1 | > 10 µM | > 10 µM | > 10 µM | > 10 µM | > 10 µM | > 10 µM | > 10 µM | > 10 µM | > 10 µM | > 10 µM | > 10 µM | > 10 µM | > 10 µM | > 10 µM | > 10 µM | > 10 µM | > 10 µM | > 10 µM | > 10 µM | > 10 µM
C=C1C(=O)O[C@H]2[C@H]1CC/C(COC(=O)c1cc3cc(OC)ccc3[nH]1)=C\CC[C@@]1(C)O[C@@H]21 | 1.63 µM | 3.04 µM | 1.03 µM | 2.19 µM | 1.54 µM | 2.91 µM | 1.48 µM | 3.17 µM | 1.27 µM | 2.98 µM | 0.935 µM | 2.15 µM | 1.77 µM | 3.76 µM | 1.58 µM | 3.37 µM | 1.83 µM | 3.65 µM | 2.42 µM | 10.8 µM
COc1ccc2c(-c3cc4ccccc4o3)cc(=O)oc2c1 | – | > 92 µM | – | > 100 µM | – | > 100 µM | – | > 100 µM | – | > 100 µM | – | 30.4 µM | – | > 100 µM | – | > 100 µM | – | > 100 µM | – | 79.7 µM
Cc1c(-c2nc(N)nc(C3CC3)c2C)nc(N)nc1C1CC1 | – | > 100 µM | – | > 100 µM | – | > 100 µM | – | > 100 µM | – | > 100 µM | – | > 100 µM | – | > 100 µM | – | > 100 µM | – | > 100 µM | – | > 100 µM
COc1ccc2c(c1)[C@@]13CCN4CC5=CCO[C@H]6CC(=O)N2[C@H]1[C@H]6[C@H]5C[C@H]43 | – | > 100 µM | – | > 100 µM | – | > 100 µM | – | > 100 µM | – | > 100 µM | – | > 100 µM | – | > 100 µM | – | > 100 µM | – | > 100 µM | – | > 100 µM
COC(=O)c1c(O)ccc2[nH]c(C)c(C#N)c12 | 20.7 µM | 54.2 µM | > 100 µM | > 100 µM | 95.1 µM | > 100 µM | 67.2 µM | > 100 µM | 25.9 µM | > 100 µM | 31.4 µM | > 100 µM | > 100 µM | > 100 µM | 43.2 µM | > 100 µM | 38.7 µM | > 100 µM | 27.4 µM | 92.9 µM
CC(=O)[CH-]C(C)=O.CC(=O)[CH-]C(C)=O.N=CC=N.[Sn+2] | 9.97 µM | 22.4 µM | 2.77 µM | 11.2 µM | 12.5 µM | 25.2 µM | 9.53 µM | 22.4 µM | 2.41 µM | 5.7 µM | 2.86 µM | 9.13 µM | 7.29 µM | 19.2 µM | 2.11 µM | 4.74 µM | 5.03 µM | 17.6 µM | 10.4 µM | 23.3 µM
C=CC(=O)Nc1cccc(Nc2nc(Nc3ccc(OCCOC)cc3)ncc2F)c1 | 0.306 µM | 1.66 µM | 1.55 µM | 13.7 µM | 3.55 µM | 19.5 µM | 1.66 µM | 5.45 µM | 1.12 µM | 12.7 µM | 2.47 µM | 16.1 µM | 1.89 µM | 21 µM | 3.19 µM | 45.1 µM | 2.92 µM | 26.9 µM | 2.95 µM | 14 µM
COc1ccc(C2C(C#N)=C(N)OC3=C2CCCc2ccc(F)cc23)cc1OC (stereo not given) | 4.22 µM | 21.9 µM | 19.1 µM | 36.9 µM | 15.6 µM | 31.6 µM | 18.3 µM | 46.3 µM | 19.9 µM | 41.8 µM | 19.3 µM | 46.2 µM | 24.7 µM | 65.2 µM | 21.4 µM | 53.5 µM | 19.5 µM | 38.8 µM | 33.2 µM | > 57.3 µM
O=P(O)(O)C(O)(Cn1ccnc1)P(=O)(O)O | > 62.8 µM | > 100 µM | > 72.2 µM | > 100 µM | 98.2 µM | > 100 µM | 53.5 µM | > 100 µM | > 53.3 µM | > 100 µM | > 66.1 µM | > 100 µM | > 89.2 µM | > 100 µM | > 92.3 µM | > 100 µM | > 59.8 µM | > 100 µM | > 100 µM | > 100 µM
Cc1ccc([N+](=O)[O-])c2c(NCCCN(C)C)ccnc12 | – | > 100 µM | – | > 100 µM | – | 45.5 µM | – | 91.8 µM | – | > 100 µM | – | > 93.1 µM | – | > 100 µM | – | > 100 µM | – | > 100 µM | – | > 100 µM
COc1ccc(NC2=C(Br)C(=O)C(C)=C(C)C2=O)cc1 | 1.62 µM | 33.6 µM | 15 µM | 29.1 µM | 12.4 µM | 26.5 µM | 1.8 µM | 3.39 µM | 11.7 µM | 24.8 µM | 1.72 µM | 3.13 µM | 5.07 µM | 21.8 µM | 2.22 µM | 5.31 µM | 2.78 µM | 9.05 µM | 13.8 µM | 27 µM
CCN(Cc1c(F)cccc1F)c1ccc(CO)c(Cl)c1 | 0.0173 µM | 0.069 µM | 12.3 µM | 47 µM | 1.15 µM | 10.7 µM | 0.0401 µM | 0.193 µM | 19.4 µM | 48.1 µM | 0.0634 µM | 0.317 µM | 0.0353 µM | 0.147 µM | 4.15 µM | 35.8 µM | 12.6 µM | 46.9 µM | 0.108 µM | 28 µM
N#Cc1c(-c2ccccc2)nc2c(c(-c3ccccc3)nn2-c2ccccc2)c1-c1ccc(O)cc1 | 1.66 µM | 3.07 µM | 2.62 µM | 8.53 µM | 1.84 µM | 3.47 µM | 1.8 µM | 3.62 µM | 2.27 µM | 5.48 µM | 2 µM | 4.45 µM | 1.75 µM | 3.41 µM | 3.14 µM | 11.7 µM | 1.82 µM | 3.78 µM | 1.88 µM | 4.29 µM
